# Test results: patent publication US20240042050A1, “ANTI-HER2 IMMUNOCONJUGATES, AND USES THEREOF” (BOLT BIOTHERAPEUTICS, INC., priority 2020, published 2024)
# Columns and labels:
# [1] = molecular target: T1, human TLR8 (Homo sapiens, UniProt Q9NR97); assay: HEK Reporter Assay, HEK293 reporter cells expressing human TLR8; assay type: cell-based; conditions: HEK293 NFKB reporter cells expressing human TLR8; read-out: HEK293 hTLR8 EC50
# T1 construct: host or cells: HEK293 NF-kB reporter cells
# T1 sequence (Q9NR97 27-1041): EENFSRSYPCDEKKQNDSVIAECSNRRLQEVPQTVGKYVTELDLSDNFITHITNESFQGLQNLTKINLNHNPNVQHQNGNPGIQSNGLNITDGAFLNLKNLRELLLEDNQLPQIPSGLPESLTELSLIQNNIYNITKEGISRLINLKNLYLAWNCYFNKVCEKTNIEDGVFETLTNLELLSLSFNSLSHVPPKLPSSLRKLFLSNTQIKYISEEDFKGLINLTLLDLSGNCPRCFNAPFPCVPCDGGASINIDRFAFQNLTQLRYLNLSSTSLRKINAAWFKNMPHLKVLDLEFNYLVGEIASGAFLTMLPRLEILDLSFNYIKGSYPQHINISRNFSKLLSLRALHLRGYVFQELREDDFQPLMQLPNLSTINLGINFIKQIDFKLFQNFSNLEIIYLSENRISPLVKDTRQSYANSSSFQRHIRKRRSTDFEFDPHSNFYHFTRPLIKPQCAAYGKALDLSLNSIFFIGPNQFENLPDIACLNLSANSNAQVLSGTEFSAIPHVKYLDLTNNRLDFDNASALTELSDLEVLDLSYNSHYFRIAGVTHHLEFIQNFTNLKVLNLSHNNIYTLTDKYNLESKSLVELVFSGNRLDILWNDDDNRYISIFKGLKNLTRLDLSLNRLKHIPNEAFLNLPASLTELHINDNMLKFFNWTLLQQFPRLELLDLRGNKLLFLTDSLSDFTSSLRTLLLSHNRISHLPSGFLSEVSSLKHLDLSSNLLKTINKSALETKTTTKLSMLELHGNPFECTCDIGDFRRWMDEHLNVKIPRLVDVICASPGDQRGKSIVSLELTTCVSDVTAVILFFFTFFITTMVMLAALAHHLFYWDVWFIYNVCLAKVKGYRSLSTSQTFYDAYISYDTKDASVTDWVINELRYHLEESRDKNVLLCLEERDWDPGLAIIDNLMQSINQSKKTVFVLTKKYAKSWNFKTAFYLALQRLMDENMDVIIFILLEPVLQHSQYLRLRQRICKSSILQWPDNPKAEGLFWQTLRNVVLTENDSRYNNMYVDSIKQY
# Description: (§1) Each compound was synthesized, purified, and characterized by mass spectrometry and shown to have the mass indicated. Additional experimental procedures are found in the Examples. Activity against HEK293 NFKB reporter cells expressing human TLR7 or human TLR8 was measured according to Example 202.
# (§2) Example 202 HEK Reporter Assay
# (§3) HEK293 reporter cells expressing human TLR7 or human TLR8 were purchased from Invivogen and vendor protocols were followed for cellular propagation and experimentation. Briefly, cells were grown to 80-85% confluence at 5% CO2 in DMEM supplemented with 10% FBS, Zeocin, and Blasticidin. Cells were then seeded in 96-well flat plates at 4×10^4 cells/well with substrate containing HEK detection medium and immunostimulatory molecules.
# [2] = molecular target: T2, human TLR7 (Homo sapiens, UniProt Q9NYK1); assay: HEK Reporter Assay, HEK293 reporter cells expressing human TLR7; assay type: cell-based; conditions: HEK293 NFKB reporter cells expressing human TLR7; read-out: HEK293 hTLR7 EC50
# T2 construct: host or cells: HEK293 NF-kB reporter cells
# T2 sequence (Q9NYK1 27-1049): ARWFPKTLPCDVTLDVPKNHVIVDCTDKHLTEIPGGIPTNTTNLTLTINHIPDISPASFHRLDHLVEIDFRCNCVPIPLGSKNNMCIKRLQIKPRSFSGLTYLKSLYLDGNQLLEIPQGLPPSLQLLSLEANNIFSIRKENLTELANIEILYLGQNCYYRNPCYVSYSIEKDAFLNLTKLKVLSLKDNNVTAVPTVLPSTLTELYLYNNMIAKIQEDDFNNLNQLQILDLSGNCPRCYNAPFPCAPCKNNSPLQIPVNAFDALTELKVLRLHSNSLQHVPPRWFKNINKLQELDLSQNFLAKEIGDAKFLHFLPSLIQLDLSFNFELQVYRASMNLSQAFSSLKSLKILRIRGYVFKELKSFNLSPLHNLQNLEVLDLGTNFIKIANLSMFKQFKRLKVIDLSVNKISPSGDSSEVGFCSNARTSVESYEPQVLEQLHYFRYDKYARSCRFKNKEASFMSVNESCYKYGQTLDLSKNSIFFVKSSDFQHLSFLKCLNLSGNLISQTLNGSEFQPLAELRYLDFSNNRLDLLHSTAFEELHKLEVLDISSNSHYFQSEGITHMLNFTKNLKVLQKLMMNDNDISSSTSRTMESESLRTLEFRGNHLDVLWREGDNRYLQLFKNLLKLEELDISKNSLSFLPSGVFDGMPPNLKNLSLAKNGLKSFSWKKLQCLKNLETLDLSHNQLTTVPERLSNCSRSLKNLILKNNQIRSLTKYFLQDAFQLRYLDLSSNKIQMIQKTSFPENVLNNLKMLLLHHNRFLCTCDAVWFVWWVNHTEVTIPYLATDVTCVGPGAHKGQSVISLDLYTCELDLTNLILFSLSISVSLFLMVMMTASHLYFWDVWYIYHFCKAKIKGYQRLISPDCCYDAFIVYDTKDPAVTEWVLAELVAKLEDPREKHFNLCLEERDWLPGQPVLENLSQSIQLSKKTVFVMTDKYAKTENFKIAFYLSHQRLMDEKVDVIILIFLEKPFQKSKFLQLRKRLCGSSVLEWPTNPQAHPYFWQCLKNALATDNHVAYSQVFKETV
# Description: as §1, §2, §3
smiles,measurement,setting,value
CCCN(CCO)C(=O)C1=Cc2ccc(-c3cccc(S(=O)(=O)N4CC(CNC(=O)OC(C)(C)C)C4)c3)cc2N=C(N)C1 [PhBz-21],EC50,[1],423 nM
same,EC50,[2],3520 nM
CCCN(OCCO)C(=O)C1=Cc2ccc(-c3cccc(S(=O)(=O)N4CC(CN)C4)c3)cc2N=C(N)C1 [PhBz-25],EC50,[1],822 nM
CCCN(CCCCO)C(=O)C1=Cc2ccc(-c3cccc(S(=O)(=O)N4CC(CNC(=O)OC(C)(C)C)C4)c3)cc2N=C(N)C1 [PhBz-9],EC50,[1],1080 nM
same,EC50,[2],5140 nM
